Data on ten compounds can be found in patent US12326385B2, “Cell-permeable fluorogenic fluorophores” (MAX-PLANCK-GESELLSCHAFT ZUR FÖRDERUNG DER WISSENSCHAFTEN E. …, priority 2018, dated 2025).

Marks after values point to notes of the source that are not given here.

The test system of one data set is SNAP-Halo-tag. The data set is described as follows: Increase in absorbance and fluorescence on binding to SNAP-HaloTag protein in vitro. The format is biochemical. Conditions: for Φ / ε^protein / λabs / λem: binding with SNAP-Halo-tag; for F/F0: ± s.e.m. The method, then:
Measurement of Increase in Absorbance and Fluorescence.
SNAP-HaloTag protein were used as a 85 μM-200 μM solution in 75 mM NaCl, 50 mM TRIS-HCl, pH 7.4 with 50% v/v glycerol (TBS-glycerol). SNAPTag and HaloTag based fluorogenic probes were diluted to 1.0-2.0 μM in 10 mM HEPES, pH 7.3. Then an aliquot of SNAPTag/HaloTag protein (1.5-2.0 equiv) was added and the resulting mixture was incubated until consistent absorbance signal was observed (˜60 min).
(§1) SDS (10% in 10 mM HEPES) was added with dilution of 100 folds as a control group. Absorbance and fluorescence measurements were performed in 96-well plate (Thermos Fisher) with optical bottom.

The test system of data set [1] is U2OS FlpIn Halo-SNAP-NLS expressing cells. As to the kind of experiment: No-wash live-cell confocal imaging, nuclear versus cytosol signal. The settings on record: for signal and background in no-wash live-cell imaging: no washing; for Fnuc./Fcyt.: average ratio between nuclear signal (U2OS FlpIn Halo-SNAP-NLS expressing cells) and cytosol signal (normal U2OS cell), ± s.e.m. The data set is classed as cell-based. From the text: Self-labeling protein tags such as SNAP-tag and HaloTag are an efficient approach to attach synthetic fluorophores to proteins in living cells. The main challenge when using these tags for live-cell imaging is the low cell permeability of most fluorescent probes used for labeling and high background signal resulting from their unspecific binding. SNAP-tag fusion proteins can be specifically labeled with different fluorophores using appropriate O^6-benzlyguanine derivatives. A 6-TAMRA based probe (150) for SNAP-tag has been previously introduced for live-cell imaging, but its low cell-permeability and lack of fluorogenicity requires the use of high concentrations (5 μM) and repeated washing steps to remove excess and non-specifically bound probe. To address these problem, the inventors coupled fluorophores 132-135 to O^6-benzylguanine to obtain probes 152, 154, 156, and 158. […] The inventors then examined the performance of probes 150, 152, 154, 156, and 158 in live-cell imaging, in which U2OS cells stably expressing a nuclear localized SNAP-Halo fusion protein were co-cultured with regular U2OS cells not expressing any protein tags. […] Furthermore, the kinetics of labeling of nuclear localized SNAP-tag with MaP555-SNAP were much faster than those of control […]. The inventors then prepared the corresponding 6-TAMRA-based probes 151, 153, 155, 157, and 159 for HaloTag. As for SNAP-tag, the probe with the largest enhancement in absorbance (16-fold) and fluorescence intensity (35-fold) in in vitro assays was based on the N,N-dimethylsulfamide derivative 159 (abbreviated as MaP555-Halo in the following). […] The excellent performance of MaP555-SNAP and MaP555-Halo in live-cell imaging experiments support the inventors' assumption that establishing a dynamic equilibrium between the fluorescent zwitterion and the more hydrophobic spirolactam enables the generation of highly cell-permeable and fluorogenic probes for live-cell imaging.
Generation of U2OS FlpIn Halo-SNAP-NLS Cell Lines
The Flp-In™ System (ThermoFisher Scientific) was used to generated U2OS FlpIn Halo-SNAP-NLS expressing cells. pcDNA5-FRT-Halo-SNAP-NLS and pOG44 were co-transfected into the host cell line U2OS FLpIn (Malecki et al. Molecular and Cellular Biology 26, 4642 (2006)). Homologous recombination between the FRT sites in pcDNA5-FRT-Halo-SNAP-NLS and on the host cell chromosome, catalysed by the Flp recombinase expressed from pOG44, produced the U2OS FlpIn Halo-SNAP-NLS stably expressing cells.
Live-Cell Confocal Imaging
U2OS FlpIn Halo-SNAP-NLS expressing cells were grown in 96-well plate (Thermos Fisher) with optical bottom at 37° C. in a humidified 5% (vol/vol) CO2 environment. 50-500 nM probes and 2 μM verapamil were added and incubated for 1 h in DMEM media (Evrogen) containing 10% FBS. The cells were directly used to image without washing. Meanwhile, another group was imaged after being washed 2 times for 5 min with 1× phosphate buffered saline (PBS, pH 7.4) and DMEM supplemented with 10% FBS. Imaging was performed using Leica TCS SP8 confocal microscope. TMR- and Rhodamine B—, and Rhodamine 110-based probes were excited at 540 nm and the fluorescence signal was collected from 560-700 nm. Semi-Rhodamine-based probes were excited at 650 nm and the fluorescence signal was […] from 670-760 nm. Images were processed with Fiji (http://fiji.sc/wiki/index.php/Fiji) to obtain MIP (maximum intensity projections)

Data set [2] is described as follows: UV-Vis and fluorescence spectroscopy of free dye or probe in buffer or SDS. The data set is classed as physicochemical. The settings on record: for Φ / ε^SDS: 0.1% SDS in HEPES buffer (pH 7.3); for ε: HEPES buffer (pH 7.3). The method, then: UV-Vis and Fluorescence Spectroscopy
Spectroscopy was performed using 96-well plate (Thermo Fisher) with optical bottom. All measurements were taken at ambient temperature (25±2° C.). Absorption and fluorescence spectra were recorded on Spark® microplate reader (Tecan). Maximum absorption wavelength (λabs), and maximum emission wavelength (λem) were taken in 10 mM HEPES, pH 7.3 buffer unless otherwise noted; reported values for ε are averages (n=3). Normalized spectra are shown for clarity.
as §1

[3] abbreviates: ratio of fluorescence intensities at 580 nm in the presence and absence of SNAP-Halo-tag.
Where [4] appears, read: upon binding to SNAP-tag, in vitro.

As for `CN1CCc2cc3c(cc21)[Si](C)(C)c1cc2c(cc1C31OC(=O)c3ccc(C(=O)NCCOCCOCCCCCCCl)cc31)CCN2C` [compound 37, reference compound], in the data set with SNAP-Halo-tag, the Φ was found to be 0.27, the “ε^protein” value is 83,000 M^−1cm^−1, the λabs came out at 695 nm and the λem was found to be 718 nm. Also, the “fluorogenicity on binding to tag or target protein” value in the data set on SNAP-Halo-tag (in vitro) is given as “only modest fluorogenicity”. Moreover, the F/F0 with SNAP-Halo-tag (ratio of fluorescence intensities at 720 nm in the presence and absence of SNAP-Halo-tag) is 7.5 ± 0.2^e. Besides, the “signal and background in no-wash live-cell imaging” value in data set [1] (U2OS cells) was “relatively high background signal”. The Fnuc./Fcyt. in data set [1] is recorded as 6.7 ± 1.5^f. In data set [2], the Φ turned out to be 0.25, the “ε^SDS” value is on record as 85,000^c M^−1cm^−1 and the ε was 38,000 M^−1cm^−1.
Take `CN(C)c1ccc2c(-c3cc(C(=O)NCc4ccc(COc5nc(N)nc6[nH]cnc56)cc4)ccc3C(=O)[O-])c3ccc(=[N+](C)C)cc-3oc2c1` [compound 150, reference compound]: in the data set on SNAP-Halo-tag, the Φ is on record as 0.42, the “ε^protein” value is reported as 66,000 M^−1cm^−1, the λabs amounted to 555 nm and the λem is 578 nm. In addition, the F/F0 in the data set with SNAP-Halo-tag (setting [3]) was 7.9 ± 0.2^e. Besides, the “signal and background in no-wash live-cell imaging” value in data set [1] (U2OS cells) is given as “barely detectable signal”. For the same compound, in data set [1], the Fnuc./Fcyt. is reported as 1.8 ± 0.1^f. In addition, in data set [2], the Φ amounted to 0.61, the “ε^SDS” value is given as 82,000 M^−1cm^−1 and the ε is 22,000 M^−1cm^−1.
For `CN(C)c1ccc2c(-c3cc(C(=O)NCCOCCOCCCCCCCl)ccc3C(=O)O)c3ccc(=[N+](C)C)cc-3oc2c1` [compound 151, reference compound], in the data set on SNAP-Halo-tag, the Φ came to 0.51, the “ε^protein” value is listed as 82,000 M^−1cm^−1, the λabs is 555 nm and the λem was 578 nm. For the same compound, the F/F0 in the data set with SNAP-Halo-tag (setting [3]) was 1.8 ± 0.1^e. In addition, in data set [1], the Fnuc./Fcyt. was 9.4 ± 1.7^f. Besides, in data set [2], the Φ is listed as 0.68, the “ε^SDS” value was 87,000 M^−1cm^−1 and the ε is recorded as 58,000 M^−1cm^−1.
With `CN(C)c1ccc2c(c1)Oc1cc(N(C)C)ccc1C21c2cc(C(=O)NCc3ccc(COc4nc(N)nc5[nH]cnc45)cc3)ccc2C(=O)N1C#N` [compound 152], in the data set on SNAP-Halo-tag, the Φ amounted to 0.33, the “ε^protein” value is 68,000 M^−1cm^−1, the λabs amounted to 558 nm and the λem came to 580 nm. Besides, the F/F0 with SNAP-Halo-tag (setting [3]) was 18 ± 2.6^e. Also, the Fnuc./Fcyt. in data set [1] is 8.1 ± 0.9^f. Besides, in data set [2], the Φ was found to be 0.58, the “ε^SDS” value is listed as 82,000 M^−1cm^−1 and the ε is reported as 18,000 M^−1cm^−1.
For the compound `CN(C)c1ccc2c(c1)Oc1cc(N(C)C)ccc1C21c2cc(C(=O)NCCOCCOCCCCCCCl)ccc2C(=O)N1C#N` [compound 153], in the data set on SNAP-Halo-tag, the Φ is on record as 0.46, the “ε^protein” value is 71,000 M^−1cm^−1, the λabs was determined as 557 nm and the λem came out at 580 nm. Moreover, the F/F0 in the data set with SNAP-Halo-tag (setting [3]) was 7.3 ± 0.8^e. The Fnuc./Fcyt. in data set [1] is 10 ± 0.4^f. Also, in data set [2], the Φ was 0.71, the “ε^SDS” value was 79,000 M^−1cm^−1 and the ε is reported as 15,000 M^−1cm^−1.
For the compound `CN(C)c1ccc2c(c1)Oc1cc(N(C)C)ccc1C21c2cc(C(=O)NCc3ccc(COc4nc(N)nc5[nH]cnc45)cc3)ccc2C(=O)N1S(C)(=O)=O` [compound 154], in the data set on SNAP-Halo-tag, the Φ turned out to be 0.38, the “ε^protein” value is listed as 65,000 M^−1cm^−1, the λabs amounted to 558 nm and the λem is 580 nm. The F/F0 in the data set on SNAP-Halo-tag (setting [3]) is recorded as 9.7 ± 0.1^e. Also, the Fnuc./Fcyt. in data set [1] is recorded as 7.9 ± 0.9^f. Besides, in data set [2], the Φ is 0.65, the “ε^SDS” value is listed as 86,000 M^−1cm^−1 and the ε is 15,000 M^−1cm^−1.
On to `CN(C)c1ccc2c(c1)Oc1cc(N(C)C)ccc1C21c2cc(C(=O)NCCOCCOCCCCCCCl)ccc2C(=O)N1S(C)(=O)=O` [compound 155], for which, in the data set with SNAP-Halo-tag, the Φ came to 0.56, the “ε^protein” value was 85,000 M^−1cm^−1, the λabs stood at 559 nm and the λem was 580 nm. Moreover, the F/F0 in the data set on SNAP-Halo-tag (setting [3]) is listed as 3.7 ± 0.4^e. Further, in data set [1], the Fnuc./Fcyt. is given as 12 ± 2.6^f. For the same compound, in data set [2], the Φ is listed as 0.66, the “ε^SDS” value is on record as 95,000 M^−1cm^−1 and the ε is 40,000 M^−1cm^−1.
For `CN(C)c1ccc2c(c1)Oc1cc(N(C)C)ccc1C21c2cc(C(=O)NCc3ccc(COc4nc(N)nc5[nH]cnc45)cc3)ccc2C(=O)N1S(N)(=O)=O` [compound 156], in the data set on SNAP-Halo-tag, the Φ is recorded as 0.46, the “ε^protein” value is reported as 57,000 M^−1cm^−1, the λabs is 557 nm and the λem came out at 578 nm. Besides, the F/F0 with SNAP-Halo-tag (setting [3]) is reported as 13 ± 2.4^e. For the same compound, the Fnuc./Fcyt. in data set [1] is listed as 9.8 ± 0.8^f. Moreover, in data set [2], the Φ was determined as 0.62, the “ε^SDS” value is given as 89,000 M^−1cm^−1 and the ε is listed as 9,800 M^−1cm^−1.
Consider `CN(C)c1ccc2c(c1)Oc1cc(N(C)C)ccc1C21c2cc(C(=O)NCCOCCOCCCCCCCl)ccc2C(=O)N1S(N)(=O)=O` [compound 157], for which, in the data set on SNAP-Halo-tag, the Φ was 0.56, the “ε^protein” value is reported as 87,000 M^−1cm^−1, the λabs was 558 nm and the λem stood at 580 nm. Moreover, the F/F0 in the data set on SNAP-Halo-tag (setting [3]) is 19 ± 3.2^e. In addition, the Fnuc./Fcyt. in data set [1] was 14 ± 0.7^f. Besides, in data set [2], the Φ was determined as 0.65, the “ε^SDS” value is reported as 91,000 M^−1cm^−1 and the ε is given as 9,600 M^−1cm^−1.
For the compound `CN(C)c1ccc2c(c1)Oc1cc(N(C)C)ccc1C21c2cc(C(=O)NCc3ccc(COc4nc(N)nc5[nH]cnc45)cc3)ccc2C(=O)N1S(=O)(=O)N(C)C` [compound 158], in the data set on SNAP-Halo-tag, the Φ was found to be 0.46, the “ε^protein” value is reported as 54,000 M^−1cm^−1, the λabs came to 556 nm and the λem amounted to 576 nm. In addition, the F/F0 in the data set on SNAP-Halo-tag (setting [3]) is listed as 21 ± 3.2^e. Also, in the data set on SNAP-Halo-tag (setting [4]), the “increase in absorbance at 555 nm” value was 15 fold and the “increase in intensity of fluorescence emission at 580 nm” value came out at 21 fold. Further, in data set [1], the Fnuc./Fcyt. is recorded as 15 ± 2.9^f. Also, the “nuclei to cytosol signal ratio (Fnuc/Fcyt)” value in data set [1] (no-wash live-cell imaging, U2OS cells, 250 nM for MaP555-SNAP and MaP700-Halo) is reported as 15. For the same compound, in data set [1] (nuclear localized SNAP-tag or HaloTag in U2OS cells), the “intracellular kinetics of labeling relative to control probe” value is “much faster”. For the same compound, in data set [2], the Φ is reported as 0.61, the “ε^SDS” value is 88,000 M^−1cm^−1 and the ε is recorded as 3,500 M^−1cm^−1.
